A short description of assay [1]: Inhibition of Fusobacterium nucleatum recombinant N-terminal hexahistidine-tagged glutamate racemase expressed in Escherichia coli BL21 (DE3) using L-glutamate as substrate by circular dichroism based assay.
The nature of assay [2]: Partial noncompetitive inhibition of Fusobacterium nucleatum recombinant N-terminal hexahistidine-tagged glutamate racemase expressed in Escherichia coli BL21 (DE3) using L-glutamate as substrate by Michaelis-Menten plot analysis.
Assay [3] has as its system Fusobacterium nucleatum. Briefly: Inhibition of Fusobacterium nucleatum recombinant N-terminal hexahistidine-tagged glutamate racemase expressed in Escherichia coli BL21 (DE3) using L-glutamate as substrate at 40 mM by circular dichroism based assay.
Assay [4] can be described thus: (§1) Mixed-type inhibition of Fusobacterium nucleatum recombinant N-terminal hexahistidine-tagged glutamate racemase expressed in Escherichia coli BL21 (DE3) using L-glutamate as substrate by Michaelis-Menten plot analysis.
Assay [5] has as its system Fusobacterium nucleatum. Described as §1.
For assay [6], the system named is Fusobacterium nucleatum. Briefly: Inhibition of Fusobacterium nucleatum recombinant N-terminal hexahistidine-tagged glutamate racemase expressed in Escherichia coli BL21 (DE3) using L-glutamate as substrate at 50 mM by circular dichroism based assay.
For assay [7], the system named is Fusobacterium nucleatum. Briefly: Inhibition of Fusobacterium nucleatum recombinant N-terminal hexahistidine-tagged glutamate racemase expressed in Escherichia coli BL21 (DE3) using L-glutamate as substrate at 64 mM by circular dichroism based assay.
Assay [8] is described as follows: Noncompetitive inhibition of Bacillus subtilis glutamate racemase.
Assay [9] in a line: Inhibition of Bacillus subtilis glutamate racemase.

Molecules are shown by their SMILES.

As to `NC1(C(=O)O)CCP(=O)(O)CC1` (stereo not drawn), the IC50 in [1] stood at 24.1 mM. The Ki in [2] is 3.1 mM.

`NC1(C(=O)O)CCS(=O)(=O)CC1`: the inhibition in the assay on Fusobacterium nucleatum [3] is 30%. In [1], the IC50 was found to be 215 mM.

On to `O=C1CCS(=O)(=O)CC1`, for which, in assay [1], the IC50 was determined as 21.2 mM. The Ki in assay [4] was found to be 18.4 mM. Further, the alphaKi in the assay on Fusobacterium nucleatum [5] came out at 28 mM.

`O=C1CCP(=O)(O)CC1`: the IC50 in assay [1] was 47.7 mM.

`O=C(O)CCP(=O)(O)CCC(=O)O`: the IC50 in assay [1] stood at 60.4 mM. Further, in the assay on Fusobacterium nucleatum [6], the inhibition came out at 40%.

In the case of `NC(CCP(=O)(O)O)C(=O)O` (racemic), the inhibition in the assay on Fusobacterium nucleatum [7] turned out to be 15%.

Turning to `O=C(O)c1cccc(C(=O)O)n1` [DIPICOLINIC ACID], the Ki in assay [8] was determined as 0.092 mM; in [9], 2.7 mM.

(Values after ChEMBL document CHEMBL3120135, “Inhibition of glutamate racemase by substrate-product analogues” (Bioorg Med Chem Lett, 2014).)
